From ChEMBL document CHEMBL2046319, “Synthesis and cytotoxicity of lupane-type triterpenoid glyceryl esters” (Bioorg Med Chem Lett, 2012)

What was measured:
[1] = Cytotoxicity against human WS1 cells by Alamar Blue dye assay; format: cell-based
A549 = assay: Cytotoxicity against human A549 cells by Alamar Blue dye assay; format: functional, cell-based
DLD-1 = assay: Cytotoxicity against human DLD1 cells by Alamar Blue dye assay; format: functional, cell-based

Structure (SMILES) | IC50 [1] | IC50 (A549) | IC50 (DLD-1)
C=C(C)[C@@H]1CC[C@]2(COC(=O)[C@H](O)CO)CC[C@]3(C)[C@H](CC[C@@H]4[C@@]5(C)CC[C@H](OC(=O)[C@H](O)CO)C(C)(C)[C@@H]5CC[C@]43C)[C@@H]12 | 40 µM | 31 µM | 39 µM
C=C(C)[C@@H]1CC[C@]2(COC(=O)[C@H]3COC(C)(C)O3)CC[C@]3(C)[C@H](CC[C@@H]4[C@@]5(C)CC[C@H](OC(=O)[C@H]6COC(C)(C)O6)C(C)(C)[C@@H]5CC[C@]43C)[C@@H]12 | > 100 µM | > 100 µM | > 100 µM
C=C(C)[C@@H]1CC[C@]2(COC(C)=O)CC[C@]3(C)[C@H](CC[C@@H]4[C@@]5(C)CC[C@H](OC(=O)[C@H](O)CO)C(C)(C)[C@@H]5CC[C@]43C)[C@@H]12 | 15 µM | 15.5 µM | 16 µM
C=C(C)[C@@H]1CC[C@]2(C(=O)OC[C@H](O)CO)CC[C@]3(C)[C@H](CC[C@@H]4[C@@]5(C)CC[C@H](OC(C)=O)C(C)(C)[C@@H]5CC[C@]43C)[C@@H]12 | 15 µM | 16.5 µM | 18 µM
C=C(C)[C@@H]1CC[C@]2(C(=O)OC[C@H](O)CO)CC[C@]3(C)[C@H](CC[C@@H]4[C@@]5(C)CC[C@H](O)C(C)(C)[C@@H]5CC[C@]43C)[C@@H]12 | 13.7 µM | 16 µM | 23 µM
C=C(C)[C@@H]1CC[C@]2(COC(=O)[C@H]3COC(C)(C)O3)CC[C@]3(C)[C@H](CC[C@@H]4[C@@]5(C)CC[C@H](OC(C)=O)C(C)(C)[C@@H]5CC[C@]43C)[C@@H]12 | > 100 µM | > 100 µM | > 100 µM
C=C(C)[C@@H]1CC[C@]2(C(=O)OC[C@H]3COC(C)(C)O3)CC[C@]3(C)[C@H](CC[C@@H]4[C@@]5(C)CC[C@H](O)C(C)(C)[C@@H]5CC[C@]43C)[C@@H]12 | 43 µM | 30 µM | 96 µM
C=C(C)[C@@H]1CC[C@]2(C(=O)OC[C@H]3COC(C)(C)O3)CC[C@]3(C)[C@H](CC[C@@H]4[C@@]5(C)CC[C@H](OC(C)=O)C(C)(C)[C@@H]5CC[C@]43C)[C@@H]12 | > 100 µM | > 100 µM | > 100 µM
C=C(C)[C@@H]1CC[C@]2(COC(C)=O)CC[C@]3(C)[C@H](CC[C@@H]4[C@@]5(C)CC[C@H](OC(=O)[C@H]6COC(C)(C)O6)C(C)(C)[C@@H]5CC[C@]43C)[C@@H]12 | > 100 µM | > 100 µM | > 100 µM
C=C(C)[C@@H]1CC[C@]2(COC(=O)[C@H](O)CO)CC[C@]3(C)[C@H](CC[C@@H]4[C@@]5(C)CC[C@H](OC(C)=O)C(C)(C)[C@@H]5CC[C@]43C)[C@@H]12 | 16 µM | 16.3 µM | 16 µM
